16 compounds from patent US20080070954A1, “Acylurea Connected And Sulfonylurea Connected Hydroxamates” (S*BIO PTE LTD., priority 2003, published 2008) can be followed below.

For experiment [1], the target named is T1, HDAC1 enzyme (recombinant GST-HDAC1) (Homo sapiens, UniProt Q13547).
T1 construct: Amplification of human HDAC1 and HDAC8 coding region from this cDNA library; made in house; host or cells: SF9 insect cells (baculovirus, pDEST20 vector)
Put plainly: In vitro HDAC assay for determination of IC50 values (BIOMOL fluorescent-based), HDAC1. The experiment is classed as biochemical. Conditions: 600 nM HDAC1 enzyme, 500 μM Flur de lys generic substrate, 2 h room temperature. As to the method:
Human cDNA library was prepared using cultured SW620 cells. Amplification of human HDAC1 and HDAC8 coding region from this cDNA library was cloned separately into the baculovirus expression pDEST20 vector and pFASTBAC vector respectively (GATEWAY Cloning Technology, Invitrogen Pte Ltd). The pDEST20-HDAC1 and pFASTBAC-HTGST-HDAC8 constructs were confirmed by DNA sequencing. Recombinant baculovirus was prepared using the Bac-To-Bac method following the manufacturer's instruction (Invitrogen Pte Ltd). Baculovirus titer was determined by plaque assay to be about 10^8 PFU/ml.
(§1) Expression of GST-HDAC1 or HTGST-HDAC8 was done by infecting SF9 cells (Invitrogen Pte Ltd) with pDEST20-HDAC1 or pFASTBAC-GST-HDAC8 baculovirus at MOI=1 for 48 h. Soluble cell lysate was incubated with pre-equilibrated Glutathione Sepharose 4B beads (Amersham) at 4° C. for 2 h. The beads were washed with PBS buffer for 3 times. The GST-HDAC1 protein or GST-HDAC8 protein was eluted by elution buffer containing 50 mM Tris, pH8.0, 150 mM NaCl, 1% Triton X-100 and 10 mM or 20 mM reduced Glutathione. The purified GST-HDAC1 protein or purified GST-HDAC8 protein was dialyzed with HDAC storage buffer containing 10 mM Tris, pH7.5, 100 mM NaCl and 3 mM MgCl2. 20% Glycerol was added to purified GST-HDAC1 protein or purified GST-HDAC8 before storage at −80° C.
The assay has been carried out in 96 well format and the BIOMOL fluorescent-based HDAC activity assay has been applied. The reaction composed of assay buffer, containing 25 mM Tris pH 7.5, 137 mM NaCl, 2.7 mM KCl, 1 mM MgCl2, 1 mg/ml BSA, tested compounds, 500 nM HDAC8 enzyme or 600 nM HDAC1 enzyme, 200 μM Flur de lys p53 peptide substrate for HDAC8 enzyme or 500 μM Flur de lys generic substrate for HDAC1 enzyme and subsequently was incubated at room temperature for 2 h. Flur de lys Developer was added and the reaction was incubated for 10 min. Briefly, deacetylation of the substrate sensitizes it to the developer, which then generates a fluorophore. The fluorophore is excited with 360 nm light and the emitted light (460 nm) is detected on a fluorometric plate reader (Tecan Ultra Microplate detection system, Tecan Group Ltd.).
(§2) The analytical software, Prism 3.0® (GraphPad Software Inc) has been used to generate IC50 from a series of data.

Experiment [2] deals with T2, HDAC8 enzyme (recombinant GST-HDAC8) (Homo sapiens, UniProt Q9BY41).
T2 construct: Amplification of human HDAC1 and HDAC8 coding region from this cDNA library; made in house; host or cells: SF9 insect cells (baculovirus, pFASTBAC vector)
T2 sequence (Q9BY41 1-377): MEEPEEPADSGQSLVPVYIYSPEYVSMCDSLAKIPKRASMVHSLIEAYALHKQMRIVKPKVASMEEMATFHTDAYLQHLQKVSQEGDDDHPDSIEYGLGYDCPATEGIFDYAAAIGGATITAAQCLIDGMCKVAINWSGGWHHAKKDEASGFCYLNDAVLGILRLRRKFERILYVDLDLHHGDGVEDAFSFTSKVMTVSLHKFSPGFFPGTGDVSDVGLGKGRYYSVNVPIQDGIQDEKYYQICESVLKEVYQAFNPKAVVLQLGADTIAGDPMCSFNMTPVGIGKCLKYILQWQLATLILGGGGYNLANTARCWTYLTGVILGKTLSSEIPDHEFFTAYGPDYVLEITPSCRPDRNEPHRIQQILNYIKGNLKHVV
In words: In vitro HDAC assay for determination of IC50 values (BIOMOL fluorescent-based), HDAC8. Conditions: 500 nM HDAC8 enzyme, 200 μM Flur de lys p53 peptide substrate, 2 h room temperature. The experiment is classed as biochemical. As to the method: Human cDNA library was prepared using cultured SW620 cells. Amplification of human HDAC1 and HDAC8 coding region from this cDNA library was cloned separately into the baculovirus expression pDEST20 vector and pFASTBAC vector respectively (GATEWAY Cloning Technology, Invitrogen Pte Ltd). […] Recombinant baculovirus was prepared using the Bac-To-Bac method following the manufacturer's instruction (Invitrogen Pte Ltd).
as §1
The assay has been carried out in 96 well format and the BIOMOL fluorescent-based HDAC activity assay has been applied. […] Flur de lys Developer was added and the reaction was incubated for 10 min. Briefly, deacetylation of the substrate sensitizes it to the developer, which then generates a fluorophore. The fluorophore is excited with 360 nm light and the emitted light (460 nm) is detected on a fluorometric plate reader (Tecan Ultra Microplate detection system, Tecan Group Ltd.).
as §2

In experiment [3] the test system is Colo205 human colon cancer cell line. In words: Cell-based proliferation assay for determination of GI50 values, Colo205. Conditions: COLO 205, Colo205 cells, 96 h treatment, cyquant assay, read-out: Colo 205 Gl50. As to the method: (§3) Human colon cancer cell lines (Colo205) and human breast cancer cell lines (MDA-MB435 and MDA-MB231) were obtained from ATCC. Colo205 cells were cultivated in RPMI 1640 containing 2 mM L-Glutamine, 5% FBS, 1.0 mM Na Pyruvate. MDA-MB231 cells were cultivated in RPMI 1640 containing 2 mM L-glutamine, 5% FBS. MDA-MB435 cells were cultivated in DMEM containing 2 mM L-Glutamine, 5% FBS. Colo205 cells were seeded in 96-wells plate at 5000 cells per well respectively. MDA-MB435 and MDA-MB231 cells were seeded in 96-wells plate at 6000 cells per well. The plates were incubated at 37° C., 5% CO2, for 24 h. Cells were treated with compounds at various concentrations for 96 h. Cell growth was then monitored using cyquant cell proliferation assay (Invitrogen Pte Ltd). Dose response curves were plotted to determine GI50 values for the compounds using XL-fit (ID Business Solution, Emeryville, Calif.).

Experiment [4] has as its system acetylated histone H3 in Colo205 cells. In words: Histone acetylation assay (western blot), histone H3. Conditions: Colo205 cells, 0.1, 1, 5 and 10 μM, 24 h. Set-up: key: “Active” means accumulation of acetylated histone was observed when compared with control (without compound). The experiment is classed as cell-based, human. As to the method:
(§4) A hallmark of histone deacetylase (HDAC) inhibition is the increase in the acetylation level of histones. Histone acetylation, including H3, H4, H2A and H2B can be detected by immuno-blotting (western-blot). Colo205 cells, approximately 1.5×10^6 cells/10 cm dish, were seeded in the previously described medium, cultivated for 24 h and subsequently treated with HDAC inhibitory agents at 0.1, 1, 5 and 10 μM final concentration. After 24 h, cells were harvested and lysed according to the instruction from Sigma Mammalian Cell Lysis Kit. The protein concentration was quantified using BCA method (Sigma Pte Ltd). The protein lysate was separated using 4-12% bis-tris SDS-PAGE gel (Invitrogen Pte Ltd) and was transferred onto PVDF membrane (BioRad Pte Ltd). The membrane was probed separately using primary antibody specific for acetylated H3, acetylated H4 or acetylated H2A (Upstate Pte Ltd). The detection antibody, goat anti rabbit antibody conjugated with Horse radish peroxidase (HRP) was used according to the manufacturer instruction (Pierce Pte Ltd). After removing the detection antibody from the membrane, an enhanced chemiluminescent substrate for detection of HRP (Pierce Pte Ltd) was added onto the membrane. After removing the substrate, the membrane was exposed to an X-ray film (Kodak) for 1 sec-20 mins. The X-ray film was developed using the X-ray film processor. The density of each band observed on the developed film could be analysed using UVP Bioimaging software (UVP, Inc, Upland, Calif.). The values were then normalized against the density of actin in the corresponding samples to obtain the expression of the protein.
(In western blotting, separated proteins are transferred to a membrane and probed.)

The subject of experiment [5] is MDA-MB435 human breast cancer cell line. Put plainly: Cell-based proliferation assay for determination of GI50 values, MDA-MB435. Conditions: MDA-MB435 cells, 96 h treatment, cyquant assay. As to the method:
as §3

Experiment [6] concerns acetylated histone H4 in Colo205 cells. In words: Histone acetylation assay (western blot), histone H4. Conditions: Colo205 cells, 0.1, 1, 5 and 10 μM, 24 h. Set-up: key: “Active” means accumulation of acetylated histone was observed when compared with control (without compound). It counts as cell-based, human. The method, then: as §4
The test system of experiment [7] is MDA-MB231 human breast cancer cell line. Put plainly: Cell-based proliferation assay for determination of GI50 values, MDA-MB231. Conditions: MDA-MB231 cells, 96 h treatment, cyquant assay. As to the method:
as §3

The structures appear in SMILES notation.

T1 sequence (Q13547 whole entry): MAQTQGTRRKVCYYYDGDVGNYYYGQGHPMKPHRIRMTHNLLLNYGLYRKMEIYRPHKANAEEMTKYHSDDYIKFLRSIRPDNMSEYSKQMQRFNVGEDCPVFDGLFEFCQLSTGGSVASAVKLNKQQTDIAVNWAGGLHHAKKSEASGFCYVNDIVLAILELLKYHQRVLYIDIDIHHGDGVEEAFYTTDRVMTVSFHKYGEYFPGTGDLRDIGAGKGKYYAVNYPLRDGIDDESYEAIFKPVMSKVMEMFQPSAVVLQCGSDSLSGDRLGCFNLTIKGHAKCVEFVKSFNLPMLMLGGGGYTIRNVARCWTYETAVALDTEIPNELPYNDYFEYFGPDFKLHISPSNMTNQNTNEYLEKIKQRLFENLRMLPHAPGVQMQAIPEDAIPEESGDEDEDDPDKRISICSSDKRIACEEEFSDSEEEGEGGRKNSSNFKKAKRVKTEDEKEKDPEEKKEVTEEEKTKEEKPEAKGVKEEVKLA

Regarding `O=C(/C=C/c1ccc(CN(CCN2CCCC2)C(=O)NC(=O)c2ccccc2)cc1)NO` [Example 47, 3-{4-[3-Benzoyl-1-(2-pyrrolidin-1-yl-ethyl)-ureidomethyl]-phenyl}-N-hydroxy-acrylamide], the values for the IC50 in experiment [1] and in experiment [2] were 24 nM and 250 nM, respectively.
The matching figures for `Cc1ccc(S(=O)(=O)NC(=O)NCCCCCCCC(=O)NO)cc1` [Example 14]: 1130 nM and 51 nM.
The matching figures for `Cc1ccc(S(=O)(=O)NC(=O)Nc2ccc(/C=C/C(=O)NO)cc2)cc1` [Example 2]: 2610 nM and 40 nM.
With `O=C(/C=C/c1ccc(CN(CCN2CCCCC2)C(=O)NC(=O)c2ccccc2)cc1)NO` [Example 46, 3-{4-[3-Benzoyl-1-(2-piperidin-1-yl-ethyl)-ureidomethyl]-phenyl}-N-hydroxy-acrylamide], the concentration for half-maximal inhibition (IC50) in experiment [1] worked out at 48 nM; in experiment [2], 230 nM. Moreover, the GI50 in experiment [3] came to 630 nM. The “Histone 3 acetylation” value in experiment [4] was “Active”.
In the case of `Cc1ccc(S(=O)(=O)NC(=O)Nc2ccc(CC(=O)NO)cc2)cc1` [Example 5, N-Hydroxy-2-{4-[3-(toluene-4-sulfonyl)ureido]-phenyl}acetamide], the figures for the IC50 in experiment [1] and in experiment [2] were greater than 100000 nM and 140 nM, respectively.
The like results for `Cc1ccc(S(=O)(=O)NC(=O)NCCCCCC(=O)NO)cc1` [Example 1, 6-[3-(toluene-4-sulfonyl)ureido]-hexanoic acid hydroxyamide] were, in that order, greater than 100000 nM and 790 nM.
The matching figures for `Cc1ccc(S(=O)(=O)NC(=O)NCc2ccc(C(=O)NO)cc2)cc1` [Example 4]: 2920 nM and 49 nM.
Turning to `O=C(CCCCCNC(=S)NC(=O)c1ccccc1)NO` [Example 18, 6-(3-Benzoyl-thioureido)-hexanoic acid hydroxyamide], the IC50 in experiment [1] amounted to 27 nM; in experiment [2], 520 nM. Further, the GI50 in experiment [3] is 2670 nM. In experiment [4], the “Histone 3 acetylation” value is reported as “Active”.
For `O=C(NCc1ccc(C(=O)NO)cc1)NC(=O)c1ccccc1` [Example 6, 4-(3-Benzoyl-ureidomethyl)-N-hydroxy-benzamide], the IC50 worked out at 130 nM in experiment [1] and 41 nM in experiment [2]. Moreover, in experiment [5], the “MDA-MB435 Gl50” value came out at 1.24 µM. In addition, in experiment [6], the “Histone 4 acetylation” value is on record as “Active”. Further, the “MDA-MB231 Gl50” value in experiment [7] was 1.92 µM. Also, the GI50 in experiment [3] stood at 1910 nM. In addition, the “Histone 3 acetylation” value in experiment [4] is listed as “Active”.
Consider `O=C(CCCCCCCNC(=O)NC(=O)c1ccccc1)NO` [Example 12, 8-(3-Benzoyl-ureido)-octanoic acid hydroxyamide], for which the half-maximal inhibitory concentration (IC50) in experiment [1] was found to be 98 nM; in experiment [2], 400 nM. Moreover, in experiment [3], the GI50 came out at 8030 nM.
For `O=C(Cc1ccc(NC(=O)NC(=O)c2ccccc2)cc1)NO` [Example 8, 2-[4-(3-Benzoyl-ureido)-phenyl]-N-hydroxy-acetamide], the IC50 is greater than 100000 nM in experiment [1] and 72 nM in experiment [2].
The like results for `O=C(NO)c1ccc(CN2CCN(C(=O)NC(=O)c3ccccc3)CC2)cc1` [Example 30, 4-(4-Benzoylaminocarbonyl-piperazin-1-ylmethyl)-N-hydroxy-benzamide] were, in that order, 2870 nM and 460 nM.
The matching figures for `O=C(Cc1cccc(NC(=O)NC(=O)c2ccccc2)c1)NO` [Example 7, 2-[3-(3-Benzoyl-ureido)-phenyl]-N-hydroxy-acetamide]: greater than 100000 nM and 150 nM.
Consider `O=C(/C=C/c1ccc(CN(CCc2ccc(Br)cc2)C(=O)NC(=O)c2ccccc2)cc1)NO` [Example 25, 3-(4-{3-Benzoyl-1-[2-(4-bromo-phenyl)-ethyl]-ureidomethyl}-phenyl)-N-hydroxy-acrylamide], for which the GI50 in experiment [3] was 160 nM.
As to `O=C(/C=C/c1ccc(CN(CCc2ccccc2)C(=O)NC(=O)c2ccccc2)cc1)NO` [Example 23, 3-[4-(3-Benzoyl-1-phenethyl-ureidomethyl)-phenyl]-N-hydroxy-acrylamide], the results for the IC50 in experiment [1] and in experiment [2] were 12 nM and 200 nM, respectively. Besides, in experiment [7], the “MDA-MB231 Gl50” value came to 0.26 µM. Besides, the GI50 in experiment [3] was 150 nM. Moreover, the “Histone 3 acetylation” value in experiment [4] is reported as “Active”.
Consider `O=C(CCCCCCNC(=O)NC(=O)c1ccccc1)NO` [Example 13, 7-(3-Benzoyl-ureido)-heptanoic acid hydroxyamide], for which the IC50 in experiment [1] came out at 150 nM; in experiment [2] it was 270 nM. In experiment [3], the GI50 worked out at 2680 nM. In addition, in experiment [4], the “Histone 3 acetylation” value is reported as “Active”.

By IC50 is commonly meant the concentration needed to halve the response being measured.
